The results in this text go back to patent publication US6683077B2, “2-Amino-benzoxazinones for the treatment of viral infections” (G.D. Searle & Co., priority 1996, dated 2004).

A word on the EC50: it is the concentration giving half of the maximal effect.

The experiment has as its system HCMV engineered virus RC256. Nature of the experiment: microbe, parasite or virus in culture. As to conditions: Human betaherpesvirus 5, Fibroblast, read-out: Antiviral Activity RC256, first value (EC50). It is filed as cell-based, human cytomegalovirus.
As for `Cc1c(CNC(=O)OCc2ccccc2)ccc2nc(N[C@@H](Cc3ccc(Cl)cc3)C(=O)N(C)Cc3ccccc3)oc(=O)c12` [Example 9t, Phenylmethyl[[2-[[1S-[(4-chlorophenyl)methyl]-2-[methyl(phenylmethyl)amino]-2-oxoethyl]amino]-5-methyl-4-oxo-4H-3,1-benzoxazin-6-yl]methyl]carbamate], the EC50 came to 20 µM.

Take `CCN(CC)C(=O)[C@H](Cc1ccccc1)Nc1nc2ccc(NC(=O)OC(C)(C)C)c(C)c2c(=O)o1` [Example 6ee, 1,1-Dimethylethyl[2-[[2-(diethylamino)-2-oxo-1S-(phenylmethyl)ethyl]amino]-5-methyl-4-oxo-4H-3,1-benzoxazin-6-yl]carbamate]: the EC50 came out at 26 µM.

On to `Cc1c(CNC(=O)C=Cc2ccccc2)ccc2nc(N[C@@H](Cc3ccccc3)C(=O)N(C)Cc3ccccc3)oc(=O)c12` [Example 9v, N-Methyl-αS-[[5-methyl-6-[[(1-oxo-3-phenyl-2-propenyl)amino]methyl]-4-oxo-4H-3,1-benzoxazin-2-yl]amino]-N-(phenylmethyl)benzenepropanamide], for which the EC50 amounted to 26 µM.

As for `Cc1c(CNC(=O)NC(C)(C)C)ccc2nc(N[C@@H](Cc3ccccc3)C(=O)N(C)Cc3ccccc3)oc(=O)c12` [Example 12e, αS-[[6-[[[[(1,1-Dimethylethyl)amino]carbonyl]amino]methyl]-5-methyl-4-oxo-4H-3,1-benzoxazin-2-yl]amino]-N-methyl-N-(phenylmethyl)benzenepropanamide], the EC50 came to 14 µM.

In the case of `CCN(Cc1ccccc1)C(=O)[C@H](Cc1ccccc1)Nc1nc2ccc(N)c(C)c2c(=O)o1` [Example 8f, αS-[(6-Amino-5-methyl-4-oxo-4H-3,1-benzoxazin-2-yl)amino]-N-ethyl-N-(phenylmethyl)benzenepropanamide], the EC50 stood at 17 µM.

Regarding `COC(=O)[C@H](Cc1c[nH]c2ccccc12)Nc1nc2cccc(C)c2c(=O)o1` [Example 1m, N-(5-Methyl-4-oxo-4H-3,1-benzoxazin-2-yl)-L-tryptophan, methyl ester], the EC50 came to 56 µM.

With `COC(=O)[C@H](Cc1ccc(I)cc1)Nc1nc2ccc(NC(=O)OC(C)(C)C)c(C)c2c(=O)o1` [Example 6t, N-[6-[[(1,1-Dimethylethoxy)carbonyl]amino]-5-methyl-4-oxo-4H-3,1-benzoxazin-2-yl]-4-iodo-L-phenylalanine, methyl ester], the EC50 was found to be 17 µM.

As to `Cc1cccc2nc(N[C@H](C(=O)OC(C)(C)C)c3ccccc3)oc(=O)c12` [Example 1o, N-(5-Methyl-4-oxo-4H-3,1-benzoxazin-2-yl)-L-phenylglycine, 1,1-dimethylethyl ester], the EC50 worked out at 10 µM.

For the molecule `COc1ccc(C[C@H](Nc2nc3ccc(CNC(=O)OC(C)(C)C)c(C)c3c(=O)o2)C(=O)N2CCOCC2)cc1` [Example 7h, 1,1-Dimethylethyl[[2-[[1S-[(4-methoxyphenyl)methyl]-2-(4-morpholinyl)-2-oxoethyl]amino]-5-methyl-4-oxo-4H-3,1-benzoxazin-6-yl]methyl]carbamate], the EC50 worked out at 16 µM.

Turning to `Cc1c(NC(=O)OC(C)(C)C)ccc2nc(N[C@@H](Cc3ccc(I)cc3)C(=O)N(C)C)oc(=O)c12` [Example 6cc, 1,1-Dimethylethyl[2-[[2-(dimethylamino)-1S-[(4-iodophenyl)methyl]-2-oxoethyl]amino]-5-methyl-4-oxo-4H-3,1-benzoxazin-6-yl]carbamate], the EC50 is 40 µM.

On to `Cc1c(CNC(=O)CN(C)C)cc(Br)c2nc(N[C@@H](Cc3ccccc3)C(=O)N(C)Cc3ccccc3)oc(=O)c12` [Example 15a, αS-[[8-Bromo-6-[[[2-(dimethylamino)acetyl]amino]methyl]-5-methyl-4-oxo-4H-3,1-benzoxazin-2-yl]amino]-N-methyl-N-(phenylmethyl)benzenepropanamide], for which the EC50 was 21 µM.

Take `COc1ccc(C[C@H](Nc2nc3cccc(OC)c3c(=O)o2)C(=O)N(C)Cc2ccccc2)cc1` [Example 1u, N-[5-Methoxy-4-oxo-4H-3,1-benzoxazin-2-yl]-O-methyl-L-tyrosine, N-methyl-N-phenylmethylamide]: the EC50 worked out at 14 µM.

Turning to `Cc1cccc2nc(N[C@@H](C)C(=O)OC(C)(C)C)oc(=O)c12` [Example 1, N-(5-Methyl-4-oxo-4H-3,1-benzoxazin-2-yl)-L-alanine, tert-butyl Ester], the EC50 turned out to be 100 µM.

Regarding `Cc1c(CNS(C)(=O)=O)cc(Br)c2nc(N[C@@H](Cc3ccccc3)C(=O)N(C)Cc3ccccc3)oc(=O)c12` [Example 15j, αS-[[8-Bromo-5-methyl-6-[[(methylsulfonyl)amino]methyl]-4-oxo-4H-3,1-benzoxazin-2-yl]amino]-N-methyl-N-(phenylmethyl)benzenepropanamide], the EC50 was 13 µM.

In the case of `COC(=O)[C@H](Cc1ccccc1)Nc1nc2ccc(NC(=O)OC(C)(C)C)c(C)c2c(=O)o1` [Example 6a, N-[6-[[(1,1-Dimethylethoxy]carbonyl]amino]-5-methyl-4-oxo-4H-3,1-benzoxazin-2-yl]-L-phenylalanine, methyl ester], the EC50 was determined as 71 µM.

Consider `COC(=O)[C@H](Cc1cc(I)c(OC)c(I)c1)Nc1nc2ccc(NC(=O)OC(C)(C)C)c(C)c2c(=O)o1` [Example 6s, N-[6-[[(1,1-Dimethylethoxy)carbonyl]amino]-5-methyl-4-oxo-4H-3,1-benzoxazin-2-yl]-3,5-diiodo-O-methyl-L-tyrosine, methyl ester], for which the EC50 was 18 µM.

Consider `COc1ccc(C[C@H](Nc2nc3ccc(CNC(=O)C(C)(C)C)c(C)c3c(=O)o2)C(=O)N(C)Cc2ccccc2)cc1` [Example 9l, αS-[[6-[[(2,2-Dimethyl-1-oxopropyl)amino]methyl]-5-methyl-4-oxo-4H-3,1-benzoxazin-2-yl]amino]-4-methoxy-N-methyl-N-(phenylmethyl)benzenepropanamide], for which the EC50 was 65 µM.

`COC(=O)[C@H](Cc1ccccc1)Nc1nc2ccc(NC(=O)Cc3cccs3)c(C)c2c(=O)o1` [Example 11g, N-[6-[[(2-Thienylmethyl)carbonyl]amino]-5-methyl-4-oxo-4H-3,1-benzoxazin-2-yl]-L-phenylalanine, methyl ester]: the EC50 stood at 10 µM.

Regarding `COc1ccc(C[C@H](Nc2nc3ccc(N(C)C)c(C)c3c(=O)o2)C(=O)N(C)Cc2ccccc2)cc1` [Example 16a, αS-[[6-(Dimethylamino)-5-methyl-4-oxo-4H-3,1-benzoxazin-2-yl]amino]-4-methoxy-N-methyl-N-(phenylmethyl)benzenepropanamide], the EC50 stood at 15 µM.

On to `COc1ccc(C[C@H](Nc2nc3ccc(NC(=O)OC(C)(C)C)c(C)c3c(=O)o2)C(=O)NCc2ccccn2)cc1` [Example 6gg, 1,1-Dimethylethyl[2-[[1S-[(4-methoxphenyl)methyl]-2-oxo-2-[[(2-pyridinyl)methyl]amino]ethyl]amino]-5-methyl-4-oxo-4H-3,1-benzoxazin-6-yl]carbamate], for which the EC50 turned out to be 6.5 µM.

For the molecule `CCN(Cc1ccccc1)C(=O)[C@H](Cc1ccccc1)Nc1nc2c(Br)cc(N)c(C)c2c(=O)o1` [Example 8g, αS-[(6-Amino-8-bromo-5-methyl-4-oxo-4H-3,1-benzoxazin-2-yl)amino]-N-ethyl-N-(phenylmethyl)benzenepropanamide], the EC50 worked out at 8.5 µM.

`COC(=O)C(C)(C)Nc1nc2ccc(NC(=O)OC(C)(C)C)c(C)c2c(=O)o1` [Example 6w, N-[6-[[(1,1-Dimethylethoxy)carbonyl]amino]-5-methyl-4-oxo-4H-3,1-benzoxazin-2-yl]-2-aminoisobutyric acid, methyl ester]: the EC50 is > 100 µM.

On to `Cc1cccc2nc(N[C@@H](CCCCNC(=O)OCc3ccccc3)C(=O)OC(C)(C)C)oc(=O)c12` [Example 1i, N^α-(5-Methyl-4-oxo-4H-3,1-benzoxazin-2-yl)-N^ε-[(phenylmethoxy)carbonyl)-L-lysine, 1,1-dimethylethyl ester], for which the EC50 worked out at 9 µM.

Consider `COc1ccc(C[C@H](Nc2nc3ccc(N)c(C)c3c(=O)o2)C(=O)N(C)Cc2ccccc2)cc1` [Example 8h, αS-[(6-amino-5-methyl-4-oxo-4H-3,1-benzoxazin-2-yl)amino]-N-methyl-4-methoxy-N-(phenylmethyl)benzenepropanamide], for which the EC50 stood at 100 µM.

For `Cc1c(CNC(=O)OC(C)(C)C)ccc2nc(N[C@@H](Cc3ccccc3)C(=O)N(C)Cc3cccnc3)oc(=O)c12` [Example 7s, 1,1-Dimethylethyl[[5-methyl-2-[[2-[methyl[(3-pyridinyl)methyl]amino]-1S-(phenylmethyl)-2-oxoethyl]amino]4-oxo-4H-3,1-benzoxazin-6-yl]methyl]carbamate], the EC50 is 16 µM.

For the molecule `COc1ccc(C[C@H](Nc2nc3ccc(CNC(=O)OC(C)(C)C)c(C)c3c(=O)o2)C(=O)N(C)Cc2ccccc2)cc1` [Example 7i, 1,1-Dimethylethyl[[2-[[1S-[(4-methoxyphenyl)methyl]-2-[methyl(phenylmethyl)amino]-2-oxoethyl]amino]-5-methyl-4-oxo-4H-3,1-benzoxazin-6-yl]methyl]carbamate], the EC50 came out at 30 µM.

Regarding `Cc1cccc2nc(N[C@H](C)c3ccccc3)oc(=O)c12` [Example 3c, 5-Methyl-2-[[(1R)-1-phenylethyl]amino]-4H-3,1-benzoxazin-4-one], the EC50 worked out at 17 µM.

Regarding `COc1ccc(C[C@H](Nc2nc3ccc(CNC(=O)CCc4cccnc4)c(C)c3c(=O)o2)C(=O)N(C)Cc2ccccc2)cc1` [Example 9d, N-[[2-[[1S-[(4-Methoxyphenyl)methyl]-2-[methyl(phenylmethyl)amino]-2-oxoethyl]amino]-5-methyl-4-oxo-4H-3,1-benzoxazin-6-yl]methyl]pyridine-3-propanamide], the EC50 is 41 µM.

For the molecule `Cc1c(NC(=O)OC(C)(C)C)ccc2nc(N[C@H](C)c3ccccc3)oc(=O)c12` [Example 6n, 6-[[(1,1-Dimethylethoxy)carbonyl]amino]-5-methyl-2-[[(1R)-phenylethyl]amino]-4H-3,1-benzoxazin-4-one], the EC50 came out at 10 µM.

With `COc1ccc(C[C@H](Nc2nc3ccc(CNC(=O)OCc4cccnc4)c(C)c3c(=O)o2)C(=O)N(C)Cc2ccccc2)cc1` [Example 18, 3-Pyridinylmethyl[[2-[[1S-[(4-methoxyphenyl)methyl]-2-[methyl(phenylmethyl)amino]-2-oxoethyl]amino]-5-methyl-4-oxo-4H-3,1-benzoxazin-6-yl]methyl]carbamate], the EC50 turned out to be 14 µM.
